# Results from BigSolDB 2.1.
smiles,measurement,setting,value
O=P(O)(c1ccccc1)c1ccccc1,solubility (mole fraction),"in 2-ethoxyethanol, 288.15 K",0.00619
same,solubility (mole fraction),"in 2-ethoxyethanol, 293.18 K",0.00716
same,solubility (mole fraction),"in 2-ethoxyethanol, 298.17 K",0.0081
same,solubility (mole fraction),"in 2-ethoxyethanol, 303.04 K",0.00924
same,solubility (mole fraction),"in 2-ethoxyethanol, 308.11 K",0.0106
same,solubility (mole fraction),"in 2-ethoxyethanol, 313.15 K",0.0118
same,solubility (mole fraction),"in 2-ethoxyethanol, 318.2 K",0.0135
same,solubility (mole fraction),"in 2-ethoxyethanol, 323.16 K",0.0151
same,solubility (mole fraction),"in 2-ethoxyethanol, 328.2 K",0.0172
same,solubility (mole fraction),"in 2-ethoxyethanol, 332.96 K",0.0196
same,solubility (mole fraction),"in 2-ethoxyethanol, 338.03 K",0.0223
same,solubility (mole fraction),"in 2-ethoxyethanol, 343.24 K",0.0252
same,solubility (mole fraction),"in 2-ethoxyethanol, 348.24 K",0.0285
same,solubility (mole fraction),"in 2-ethoxyethanol, 353.25 K",0.0321
same,solubility (mole fraction),"in 2-ethoxyethanol, 358.29 K",0.036
same,solubility (mole fraction),"in 2-ethoxyethanol, 363.1 K",0.0401
same,solubility (mole fraction),"in acetic acid, 293.23 K",0.00426
same,solubility (mole fraction),"in acetic acid, 303.15 K",0.00604
same,solubility (mole fraction),"in acetic acid, 313.03 K",0.00827
same,solubility (mole fraction),"in acetic acid, 323.15 K",0.0112
same,solubility (mole fraction),"in acetic acid, 333.21 K",0.0151
same,solubility (mole fraction),"in acetic acid, 343.04 K",0.0209
same,solubility (mole fraction),"in acetone, 293.25 K",0.00051
same,solubility (mole fraction),"in acetone, 298.18 K",0.00068
same,solubility (mole fraction),"in acetone, 303.12 K",0.00091
same,solubility (mole fraction),"in acetone, 308.23 K",0.0012
same,solubility (mole fraction),"in acetone, 313.19 K",0.00156
same,solubility (mole fraction),"in acetone, 318.21 K",0.00203
same,solubility (mole fraction),"in acetone, 323.24 K",0.00244
same,solubility (mole fraction),"in benzene, 293.15 K",0.0007
same,solubility (mole fraction),"in benzene, 303.19 K",0.00112
same,solubility (mole fraction),"in benzene, 313.17 K",0.00183
same,solubility (mole fraction),"in benzene, 322.95 K",0.00291
same,solubility (mole fraction),"in benzene, 333.21 K",0.00459
same,solubility (mole fraction),"in benzene, 343.12 K",0.00706
same,solubility (mole fraction),"in ethanol, 283.15 K",0.00575
same,solubility (mole fraction),"in ethanol, 288.15 K",0.00671
same,solubility (mole fraction),"in ethanol, 293.1 K",0.00774
same,solubility (mole fraction),"in ethanol, 298.07 K",0.00889
same,solubility (mole fraction),"in ethanol, 303.07 K",0.0102
same,solubility (mole fraction),"in ethanol, 308.15 K",0.0117
same,solubility (mole fraction),"in ethanol, 313.16 K",0.0134
same,solubility (mole fraction),"in ethanol, 318.16 K",0.0152
same,solubility (mole fraction),"in ethanol, 322.84 K",0.0173
same,solubility (mole fraction),"in ethanol, 327.94 K",0.0198
same,solubility (mole fraction),"in ethanol, 333.1 K",0.0231
same,solubility (mole fraction),"in ethanol, 337.97 K",0.0264
same,solubility (mole fraction),"in ethanol, 342.9 K",0.0302
same,solubility (mole fraction),"in ethyl acetate, 293.06 K",0.00052
same,solubility (mole fraction),"in ethyl acetate, 298.15 K",0.0006
same,solubility (mole fraction),"in ethyl acetate, 303.15 K",0.00075
same,solubility (mole fraction),"in ethyl acetate, 308.17 K",0.00098
same,solubility (mole fraction),"in ethyl acetate, 313.23 K",0.00121
same,solubility (mole fraction),"in ethyl acetate, 318.04 K",0.00144
same,solubility (mole fraction),"in ethyl acetate, 323.1 K",0.00176
same,solubility (mole fraction),"in ethyl acetate, 328.13 K",0.00208
same,solubility (mole fraction),"in ethyl acetate, 333.25 K",0.00247
same,solubility (mole fraction),"in ethyl acetate, 337.95 K",0.00318
same,solubility (mole fraction),"in isopropanol, 288.15 K",0.00426
same,solubility (mole fraction),"in isopropanol, 293.15 K",0.00503
same,solubility (mole fraction),"in isopropanol, 297.98 K",0.00594
same,solubility (mole fraction),"in isopropanol, 303.09 K",0.00696
same,solubility (mole fraction),"in isopropanol, 308.05 K",0.00803
same,solubility (mole fraction),"in isopropanol, 313.15 K",0.00931
same,solubility (mole fraction),"in isopropanol, 318.06 K",0.0107
same,solubility (mole fraction),"in isopropanol, 323.08 K",0.0123
same,solubility (mole fraction),"in isopropanol, 328.12 K",0.0144
same,solubility (mole fraction),"in isopropanol, 332.97 K",0.0165
same,solubility (mole fraction),"in isopropanol, 338.17 K",0.0189
same,solubility (mole fraction),"in isopropanol, 342.94 K",0.0223
same,solubility (mole fraction),"in isopropanol, 347.8 K",0.0257
same,solubility (mole fraction),"in toluene, 293.15 K",0.00049
same,solubility (mole fraction),"in toluene, 303.16 K",0.00074
same,solubility (mole fraction),"in toluene, 313.18 K",0.00107
same,solubility (mole fraction),"in toluene, 323.08 K",0.00157
same,solubility (mole fraction),"in toluene, 333.17 K",0.00232
same,solubility (mole fraction),"in toluene, 343.25 K",0.00326
same,solubility (mole fraction),"in toluene, 352.95 K",0.00462
same,solubility (mole fraction),"in toluene, 362.65 K",0.00651
same,solubility (mole fraction),"in water, 303.14 K",5e-05
same,solubility (mole fraction),"in water, 313.17 K",8e-05
same,solubility (mole fraction),"in water, 323.13 K",0.00011
same,solubility (mole fraction),"in water, 333 K",0.00014
same,solubility (mole fraction),"in water, 343.05 K",0.00018
same,solubility (mole fraction),"in water, 353.05 K",0.00023
